Experimental data reported in ChEMBL document CHEMBL1201862, “PubChem BioAssay data set” (2004).
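Assay format: 96-well plates, 48-hour exposure. GI50: concentration for 50% inhibition of growth.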 Activity calls are given as the source filed them. No stated cut-off is given here; in the data, active = GI50 up to about 1.1 µM and inactive = higher.

Tests used:
Experiment in all cases: NCI anticancer screen, dose series, 48 h
786-0 = tested on: 786-0
A498 = tested on: A498
A549 = tested on: A549
ACHN = tested on: ACHN
BT-549 = tested on: BT-549
CAKI-1 = tested on: CAKI-1
CCRF-CEM = tested on: CCRF-CEM
COLO 205 = tested on: COLO 205
DU-145 = tested on: DU-145
EKVX = tested on: EKVX
HCC 2998 = tested on: HCC 2998
HCT-116 = tested on: HCT-116
HCT-15 = tested on: HCT-15
HL-60 = tested on: HL-60
HOP-62 = tested on: HOP-62
HOP-92 = tested on: HOP-92
HT-29 = tested on: HT-29
Hs-578T = tested on: Hs-578T
IGROV-1 = tested on: IGROV-1
K562 = tested on: K562
KM12 = tested on: KM12
LOX IMVI = tested on: LOX IMVI
M14 = tested on: M14
MCF7 = tested on: MCF7
MDA-MB-231 = tested on: MDA-MB-231
MDA-MB-435 = tested on: MDA-MB-435
MDA-N = tested on: MDA-N
MOLT-4 = tested on: MOLT-4
Malme-3M = tested on: Malme-3M
NCI-H226 = tested on: NCI-H226
NCI-H23 = tested on: NCI-H23
NCI-H460 = tested on: NCI-H460
NCI-H522 = tested on: NCI-H522
NCI/ADR-RES = tested on: NCI/ADR-RES
OVCAR-3 = tested on: OVCAR-3
OVCAR-4 = tested on: OVCAR-4
OVCAR-5 = tested on: OVCAR-5
OVCAR-8 = tested on: OVCAR-8
PC-3 = tested on: PC-3
RPMI-8226 = tested on: RPMI-8226
RXF 393 = tested on: RXF 393
SF-268 = tested on: SF-268
SF-295 = tested on: SF-295
SF-539 = tested on: SF-539
SK-MEL-28 = tested on: SK-MEL-28
SK-MEL-2 = tested on: SK-MEL-2
SK-MEL-5 = tested on: SK-MEL-5
SK-OV-3 = tested on: SK-OV-3
SN12C = tested on: SN12C
SNB-19 = tested on: SNB-19
SNB-75 = tested on: SNB-75
SR = tested on: SR
SW-620 = tested on: SW-620
T47D = tested on: T47D
TK-10 = tested on: TK-10
U-251 = tested on: U-251
UACC-257 = tested on: UACC-257
UACC-62 = tested on: UACC-62
UO-31 = tested on: UO-31

Measured: GI50

COc1ccc(Cn2c3ccc([N+](=O)[O-])cc3c(=O)n2Cc2ccccn2)cc1
inactive: 786-0 > 100 µM | A498 > 100 µM | A549 > 100 µM | ACHN 87.9 µM | BT-549 > 100 µM | CAKI-1 > 100 µM | CCRF-CEM 62.5 µM | COLO 205 > 100 µM | DU-145 > 100 µM | EKVX 66.5 µM | HCC 2998 > 100 µM | HCT-116 > 100 µM | HL-60 28.9 µM | HOP-62 > 100 µM | HOP-92 90.6 µM | HT-29 > 100 µM | Hs-578T > 100 µM | IGROV-1 > 100 µM | K562 67 µM | KM12 92.5 µM | LOX IMVI 78.2 µM | M14 46 µM | MCF7 > 100 µM | MDA-MB-231 > 100 µM | MDA-MB-435 76.4 µM | MDA-N 40.6 µM | MOLT-4 31.3 µM | Malme-3M 80.9 µM | NCI-H226 > 100 µM | NCI-H23 66.2 µM | NCI-H460 > 100 µM | NCI-H522 66.4 µM | NCI/ADR-RES 39.7 µM | OVCAR-3 > 100 µM | OVCAR-4 56.1 µM | OVCAR-5 > 100 µM | OVCAR-8 57.7 µM | PC-3 85.9 µM | RPMI-8226 34.5 µM | RXF 393 86.5 µM | SF-268 > 100 µM | SF-295 > 100 µM | SF-539 > 100 µM | SK-MEL-28 > 100 µM | SK-MEL-2 > 100 µM | SK-MEL-5 24.9 µM | SK-OV-3 > 100 µM | SN12C > 100 µM | SNB-19 > 100 µM | SNB-75 37.8 µM | SR 63 µM | SW-620 > 100 µM | T47D 18.2 µM | TK-10 > 100 µM | U-251 > 100 µM | UACC-257 55.1 µM | UACC-62 43.9 µM | UO-31 > 100 µM
> 100 µM: HCT-15

COc1ccc2[nH]c(C(=O)N3CC(CCl)c4ccc([N+](=O)[O-])cc43)cc2c1 (configuration not stated)
inactive: 786-0 > 100 µM | A498 > 100 µM | A549 > 100 µM | ACHN > 100 µM | BT-549 > 100 µM | CAKI-1 > 100 µM | CCRF-CEM > 100 µM | COLO 205 > 100 µM | DU-145 > 100 µM | EKVX 54.1 µM | HCC 2998 > 100 µM | HCT-116 > 100 µM | HL-60 > 100 µM | HOP-62 > 100 µM | HOP-92 > 100 µM | HT-29 > 95.7 µM | Hs-578T 37 µM | IGROV-1 64.1 µM | K562 > 100 µM | KM12 > 31.8 µM | LOX IMVI > 100 µM | M14 > 100 µM | MCF7 6.41 µM | MDA-MB-231 > 23.4 µM | MDA-MB-435 > 100 µM | MDA-N > 100 µM | MOLT-4 > 100 µM | Malme-3M > 100 µM | NCI-H226 33.8 µM | NCI-H23 > 100 µM | NCI-H460 > 100 µM | NCI-H522 75 µM | NCI/ADR-RES > 100 µM | OVCAR-3 > 100 µM | OVCAR-4 > 64.4 µM | OVCAR-5 > 100 µM | OVCAR-8 > 80.9 µM | PC-3 > 100 µM | RPMI-8226 > 100 µM | RXF 393 > 65.5 µM | SF-268 > 100 µM | SF-295 > 100 µM | SF-539 > 90.4 µM | SK-MEL-28 > 100 µM | SK-MEL-2 > 100 µM | SK-MEL-5 > 100 µM | SK-OV-3 > 100 µM | SN12C > 100 µM | SNB-19 > 100 µM | SNB-75 > 37.7 µM | SR > 100 µM | SW-620 > 100 µM | T47D > 21.6 µM | TK-10 > 100 µM | U-251 > 100 µM | UACC-257 > 100 µM | UACC-62 > 100 µM | UO-31 > 100 µM
> 100 µM: HCT-15

COC(=O)CN1Cc2cc(C)cc(c2O)CN(CC(=O)OC)Cc2cc(C)cc(c2O)CN(CC(=O)OC)Cc2cc(C)cc(c2O)CN(CC(=O)OC)Cc2cc(C)cc(c2O)C1
14.6 µM: HCT-15
inactive: 786-0 10.2 µM | A498 18.1 µM | A549 18.4 µM | ACHN 11.5 µM | BT-549 24.8 µM | CAKI-1 24.2 µM | CCRF-CEM 2.03 µM | COLO 205 13.7 µM | DU-145 8.17 µM | EKVX 9.06 µM | HCC 2998 13.6 µM | HCT-116 11.1 µM | HL-60 3.03 µM | HOP-62 9.51 µM | HOP-92 > 50 µM | HT-29 8.79 µM | Hs-578T 38.4 µM | IGROV-1 19.7 µM | K562 21.8 µM | KM12 32.6 µM | LOX IMVI 7.33 µM | M14 4.92 µM | MCF7 14.1 µM | MDA-MB-231 26.7 µM | MDA-MB-435 26.9 µM | MDA-N > 50 µM | MOLT-4 9.62 µM | Malme-3M 12.2 µM | NCI-H226 8.04 µM | NCI-H23 30.5 µM | NCI-H460 6.85 µM | NCI-H522 > 100 µM | NCI/ADR-RES 19.5 µM | OVCAR-3 7.05 µM | OVCAR-4 12.2 µM | OVCAR-5 9.46 µM | OVCAR-8 11 µM | PC-3 18.5 µM | RPMI-8226 39 µM | RXF 393 4.19 µM | SF-268 9.89 µM | SF-295 17.5 µM | SF-539 12.8 µM | SK-MEL-28 21.9 µM | SK-MEL-2 13.6 µM | SK-MEL-5 19.9 µM | SK-OV-3 11.9 µM | SN12C 21.5 µM | SNB-19 16 µM | SNB-75 12.4 µM | SR 6.04 µM | SW-620 14.3 µM | T47D 13.2 µM | TK-10 15.4 µM | U-251 14 µM | UACC-257 16.8 µM | UACC-62 39.6 µM | UO-31 8.89 µM
